Data from US20140329912A1, “CONTRACEPTIVE COMPOSITIONS AND METHODS OF CONTRACEPTION” (INTEGRITY PHARMACEUTICALS, LLC, priority 2011, published 2014).

Assays:
[1] = test system: Sperms; test: Toxicity screening: cell viability by MTS assay; assay type: cell-based, mice; settings: for Average absorbance of cell-reduced MTS at 490 nm: average of trials 1-3; for Corrected average absorbance of cell-reduced MTS at 490 nm: culture media background subtracted
Procedure: (§1) Male BALB/c mice (12-16 week old) were euthanized by CO2-inhalation. The cauda epididymes was clipped and the upper portions of the vas deferens freed from surrounding tissue. Three-four cuts were made using scissors and forceps across the epididymes and several cuts along the length of the vas deferens. Sperm were allowed to swim out of the tissue. The dish was placed in a 5% CO2 incubator set at 37° C. for 10-15 minutes. The solution of sperm was diluted (50 μl sperm+450 μl complete medium) in Whittens/HCO3/BSA. Sperm was removed from the very top or sides of sperm drop to obtain the sperm with highest motility. The dish was then returned to the 5% CO2 incubator set at 37° C. to allow the sperm to capacitate for 1-3 hrs prior to use.
In addition, cell viability with n-propyl bromide was measured by MTS assay (Promega, Madison, Wis.). MTS [3-(4,5-dimethylthiazol-2-yl)-5-(3-carboxymethoxyphenyl)-2-(4-sulfophenyl)-2H-tetrazolium, inner salt] was utilized according to the manufacturer's instructions. The culture growth medium consisted of Whittens-HEPES complete media, (pH 7.2-7.4) prepared and supplemented with 30 mM NaHCO3 and 10 mg/mL BSA (Bovine Serum Albumin, Sigma A0281, fatty acid free). 250 mL of Whittens-Hepes complete media includes 1461 mg of NaCl, 87.6 mg of KCl, 40.8 mg of KH2PO4, 36.1 mg of MgSO4, 247.8 mg of glucose (dextrose), 22.01 mg of pyruvic acid, 130.92 mg of lactic acid (hemi-Ca), and 1191.5 mg of HEPES. After treatments of the sperms, 30 μL of MTS solution was added to each well and pipetted up and down for ten times to ensure properly mixing and incubation was prolonged for 2 h at 37° C., 5% CO2.
Absorbance observations for trials 1-3 and calculated average are expressed as optical density. The absorbance of cell-reduced MTS was read at 490 nm on a spectrophotometer Spectra Max Plus 384, and optical density for absorbance readings is provided in Table II. Absorbance is directly proportional to the number of living cells in culture. Thus, a reduction in absorbance normalized to a control indicates toxicity to a cell. Background absorbance was measured for the culture media only in three trials. An average absorbance was calculated from the three trials. The average optical density for the three trials for the culture media (background) was then subtracted from the average optical density of the various concentration assays for n-propyl bromide (expressed in terms of ppm of n-propyl bromide). Three control trials using only phosphate buffered saline were also measured. The corrected, average optical density of each of the experimental assays was then compared to the corrected, average optical density of the control (PBS only) assays. The comparison is expressed as the percentage of MTS reduction relative to the normalized absorbance of control samples.

[2] = test system: Sperms; test: Real-Time PCR Stress and Toxicity PathwayFinder RT2 Profiler array on treated sperm; assay type: cell-based, mice; settings: 50 ppm
Procedure: as §1
Sperms (10^4) were placed in 96-well plate in complete media and treated with n-propyl bromide (50 ppm) or phosphate buffered saline (control) and incubated for 10 minutes in a 5% CO2 incubator set at 37° C. The dish with sperm was then washed 3-times with phosphate buffered saline and returned to the 5% CO2 incubator set at 37° C. for a further 24 hours. Sperm were then collected by centrifugation and subjected to the Stress and Toxicity PathwayFinder™ RT^2 Profiler™ assay according to the manufacturer's instructions (SA Biosciences, Frederick, Md.). This PCR Array profiles the expression of 84 genes whose expression level is indicative of stress and toxicity. […] The array also includes genes representative of pathways activated by prolonged stress, which range from cell death by apoptosis or necrosis to growth arrest and senescence to proliferation and carcinogenesis.

SMILES: CCCBr [n-propyl bromide, 1-bromopropane]
- % of control (MTS reduction relative to PBS only control) ([1]; 0.1 ppm): 90%
- Absorbance of cell-reduced MTS at 490 nm, Trial 1 ([1]; 0.1 ppm): 0.2 optical density
- Absorbance of cell-reduced MTS at 490 nm, Trial 2 ([1]; 0.1 ppm): 0.1 optical density
- Absorbance of cell-reduced MTS at 490 nm, Trial 3 ([1]; 0.1 ppm): 0.3 optical density
- Average absorbance of cell-reduced MTS at 490 nm ([1]; 0.1 ppm): 0.2 optical density
- Corrected average absorbance of cell-reduced MTS at 490 nm ([1]; 0.1 ppm): 0.0 optical density
- % of control (MTS reduction relative to PBS only control) ([1]; 1 ppm): 100%
- Absorbance of cell-reduced MTS at 490 nm, Trial 1 ([1]; 1 ppm): 0.2 optical density
- Absorbance of cell-reduced MTS at 490 nm, Trial 2 ([1]; 1 ppm): 0.4 optical density
- Absorbance of cell-reduced MTS at 490 nm, Trial 3 ([1]; 1 ppm): 0.1 optical density
- Average absorbance of cell-reduced MTS at 490 nm ([1]; 1 ppm): 0.2 optical density
- Corrected average absorbance of cell-reduced MTS at 490 nm ([1]; 1 ppm): 0.1 optical density
- % of control (MTS reduction relative to PBS only control) ([1]; 5 ppm): 100%
- Absorbance of cell-reduced MTS at 490 nm, Trial 1 ([1]; 5 ppm): 0.2 optical density
- Absorbance of cell-reduced MTS at 490 nm, Trial 2 ([1]; 5 ppm): 0.3 optical density
- Absorbance of cell-reduced MTS at 490 nm, Trial 3 ([1]; 5 ppm): 0.4 optical density
- Average absorbance of cell-reduced MTS at 490 nm ([1]; 5 ppm): 0.3 optical density
- Corrected average absorbance of cell-reduced MTS at 490 nm ([1]; 5 ppm): 0.1 optical density
- % of control (MTS reduction relative to PBS only control) ([1]; 12.5 ppm): 100%
- Absorbance of cell-reduced MTS at 490 nm, Trial 1 ([1]; 12.5 ppm): 0.4 optical density
- Absorbance of cell-reduced MTS at 490 nm, Trial 2 ([1]; 12.5 ppm): 0.4 optical density
- Absorbance of cell-reduced MTS at 490 nm, Trial 3 ([1]; 12.5 ppm): 0.1 optical density
- Average absorbance of cell-reduced MTS at 490 nm ([1]; 12.5 ppm): 0.3 optical density
- Corrected average absorbance of cell-reduced MTS at 490 nm ([1]; 12.5 ppm): 0.1 optical density
- % of control (MTS reduction relative to PBS only control) ([1]; 25 ppm): 100%
- Absorbance of cell-reduced MTS at 490 nm, Trial 1 ([1]; 25 ppm): 0.3 optical density
- Absorbance of cell-reduced MTS at 490 nm, Trial 2 ([1]; 25 ppm): 0.4 optical density
- Absorbance of cell-reduced MTS at 490 nm, Trial 3 ([1]; 25 ppm): 0.2 optical density
- Average absorbance of cell-reduced MTS at 490 nm ([1]; 25 ppm): 0.3 optical density
- Corrected average absorbance of cell-reduced MTS at 490 nm ([1]; 25 ppm): 0.1 optical density
- % of control (MTS reduction relative to PBS only control) ([1]; 50 ppm): 100%
- Absorbance of cell-reduced MTS at 490 nm, Trial 1 ([1]; 50 ppm): 0.2 optical density
- Absorbance of cell-reduced MTS at 490 nm, Trial 2 ([1]; 50 ppm): 0.5 optical density
- Absorbance of cell-reduced MTS at 490 nm, Trial 3 ([1]; 50 ppm): 0.1 optical density
- Average absorbance of cell-reduced MTS at 490 nm ([1]; 50 ppm): 0.3 optical density
- Corrected average absorbance of cell-reduced MTS at 490 nm ([1]; 50 ppm): 0.1 optical density
- % of control (MTS reduction relative to PBS only control) ([1]; 100 ppm): 400%
- Absorbance of cell-reduced MTS at 490 nm, Trial 1 ([1]; 100 ppm): 0.4 optical density
- Absorbance of cell-reduced MTS at 490 nm, Trial 2 ([1]; 100 ppm): 0.6 optical density
- Absorbance of cell-reduced MTS at 490 nm, Trial 3 ([1]; 100 ppm): 0.7 optical density
- Average absorbance of cell-reduced MTS at 490 nm ([1]; 100 ppm): 0.6 optical density
- Corrected average absorbance of cell-reduced MTS at 490 nm ([1]; 100 ppm): 0.4 optical density
- % of control (MTS reduction relative to PBS only control) ([1]; 200 ppm): 600%
- Absorbance of cell-reduced MTS at 490 nm, Trial 1 ([1]; 200 ppm): 0.8 optical density
- Absorbance of cell-reduced MTS at 490 nm, Trial 2 ([1]; 200 ppm): 0.9 optical density
- Absorbance of cell-reduced MTS at 490 nm, Trial 3 ([1]; 200 ppm): 0.7 optical density
- Average absorbance of cell-reduced MTS at 490 nm ([1]; 200 ppm): 0.8 optical density
- Corrected average absorbance of cell-reduced MTS at 490 nm ([1]; 200 ppm): 0.6 optical density
- % of control (MTS reduction relative to PBS only control) ([1]; 600 ppm): 900%
- Absorbance of cell-reduced MTS at 490 nm, Trial 1 ([1]; 600 ppm): 1.2 optical density
- Absorbance of cell-reduced MTS at 490 nm, Trial 2 ([1]; 600 ppm): 1.1 optical density
- Absorbance of cell-reduced MTS at 490 nm, Trial 3 ([1]; 600 ppm): 0.9 optical density
- Average absorbance of cell-reduced MTS at 490 nm ([1]; 600 ppm): 1.1 optical density
- Corrected average absorbance of cell-reduced MTS at 490 nm ([1]; 600 ppm): 0.9 optical density
- cell toxicity (MTS assay, Table II) ([1]; at concentrations of 50 ppm or less): does not result in significant cell toxicity
- cell death, necrosis, mutigencity, or DNA damage (PCR array, Table I) ([2]; a two-fold or greater change might be significant): no significant cell death, necrosis, mutigencity, or DNA damage was observed
- Fold Change, gene APFA1 (Apoptotic peptidase activating factor 1) ([2]; APFA1, NM_001160, Apoptosis and Senescence, 10 minutes, washed, further 24 hours): −1.04 fold
- Fold Change, gene ATM (Ataxia telangiectasia mutated) ([2]; ATM, NM_00051, Cell Cycle Control and DNA Damage Repair, 10 minutes, washed, further 24 hours): −1.01 fold
- Fold Change, gene BAD (BCL2 associated agonist of cell death) ([2]; BAD, NM_004322, Apoptosis and Senescence, 10 minutes, washed, further 24 hours): −1.00 fold
- Fold Change, gene BAX (BCL2 associated X protein) ([2]; BAX, NM_004324, Apoptosis and Senescence, 10 minutes, washed, further 24 hours): −1.25 fold
- Fold Change, gene BCL2 (B-cell CLL/lymphoma 2) ([2]; BCL2, NM_000633, Apoptosis and Senescence, 10 minutes, washed, further 24 hours): −1.24 fold
- Fold Change, gene BCL2L1 (BCL2-like 1) ([2]; BCL2L1, NM_138578, Apoptosis and Senescence, 10 minutes, washed, further 24 hours): −1.06 fold
- Fold Change, gene BRCA1 (Breast cancer1, early onset) ([2]; BRCA1, NM_007294, Cell Cycle Control and DNA Damage Repair, 10 minutes, washed, further 24 hours): −1.23 fold
- Fold Change, gene CASP8 (Caspase 8, apoptosis related cysteine peptidase) ([2]; CASP8, NM_001228, Apoptosis and Senescence, 10 minutes, washed, further 24 hours): −1.57 fold
- Fold Change, gene CCNE1 (Cyclin E1) ([2]; CCNE1, NM_001238, Cell Cycle Control and DNA Damage Repair, 10 minutes, washed, further 24 hours): −1.06 fold
- Fold Change, gene CDC25A (Cell division cycle 25, homolog A) ([2]; CDC25A, NM_001789, Cell Cycle Control and DNA Damage Repair, 10 minutes, washed, further 24 hours): −1.04 fold
- Fold Change, gene CDK4 (Cyclin-dependent kinase 4) ([2]; CDK4, NM_000075, Cell Cycle Control and DNA Damage Repair, 10 minutes, washed, further 24 hours): −1.04 fold
- Fold Change, gene CDKN2A (Cyclin dependent kinase inhibitor 2A) ([2]; CDKN2A, NM_000077, Cell Cycle Control and DNA Damage Repair, 10 minutes, washed, further 24 hours): −1.05 fold
- Fold Change, gene CDKNA1 (Cyclin dependent kinase inhibitor 1A) ([2]; CDKNA1, NM_000389, Cell Cycle Control and DNA Damage Repair, 10 minutes, washed, further 24 hours): −1.25 fold
- Fold Change, gene CFLAR (CASP8 & FADD like apoptosis regulator) ([2]; CFLAR, NM_003879, Apoptosis and Senescence, 10 minutes, washed, further 24 hours): −1.11 fold
- Fold Change, gene CHEK2 (CHk2, Checkpoint homolog) ([2]; CHEK2, NM_007194, Cell Cycle Control and DNA Damage Repair, 10 minutes, washed, further 24 hours): −1.02 fold
- Fold Change, gene E2F1 (E2F transcription factor 1) ([2]; E2F1, NM_005225, Cell Cycle Control and DNA Damage Repair, 10 minutes, washed, further 24 hours): −1.17 fold
- Fold Change, gene GZMA (Granzyme A) ([2]; GZMA, NM_006144, Apoptosis and Senescence, 10 minutes, washed, further 24 hours): −1.26 fold
- Fold Change, gene HTATIP2 (HIV-1 tat interactive protein 2) ([2]; HTATIP2, NM_006410, Apoptosis and Senescence, 10 minutes, washed, further 24 hours): −1.38 fold
- Fold Change, gene MDM2 (MDM2 p53 binding protein homolog) ([2]; MDM2, NM_002392, Cell Cycle Control and DNA Damage Repair, 10 minutes, washed, further 24 hours): −1.32 fold
- Fold Change, gene RB1 (Retinoblastoma 1) ([2]; RB1, NM_000321, Cell Cycle Control and DNA Damage Repair, 10 minutes, washed, further 24 hours): −1.30 fold
- Fold Change, gene S100A4 (S100 calcium binding protein A4) ([2]; S100A4, NM_002961, Cell Cycle Control and DNA Damage Repair, 10 minutes, washed, further 24 hours): −1.15 fold
- Fold Change, gene TERT (Telomerase reverse transcriptase) ([2]; TERT, NM_198253, Apoptosis and Senescence, 10 minutes, washed, further 24 hours): −1.16 fold
- Fold Change, gene TNFRS1A (Tumor necrosis factor receptor super family member 1A) ([2]; TNFRS1A, NM_001065, Apoptosis and Senescence, 10 minutes, washed, further 24 hours): −1.36 fold
- Fold Change, gene TNFRSF10B (Tumor necrosis factor receptor super family member 10b) ([2]; TNFRSF10B, NM_003842, Apoptosis and Senescence, 10 minutes, washed, further 24 hours): −1.33 fold
- Fold Change, gene TNFRSF25 (Tumor necrosis factor receptor super family member 25) ([2]; TNFRSF25, NM_003790, Apoptosis and Senescence, 10 minutes, washed, further 24 hours): −1.15 fold
- Fold Change, gene TP53 (Tumor protein p53) ([2]; TP53, NM_000546, Cell Cycle Control and DNA Damage Repair, 10 minutes, washed, further 24 hours): −1.06 fold
